Assay results from US7414040B2, “Thrombopoietin mimetics” (SmithKline Beecham Corporation, priority 2002, dated 2008).

Target: T1, human Tpo-R (Homo sapiens, UniProt P40238)
T1 construct: expressed in transfected cells; host or cells: murine BaF3 cell line
T1 sequence (P40238 26-635): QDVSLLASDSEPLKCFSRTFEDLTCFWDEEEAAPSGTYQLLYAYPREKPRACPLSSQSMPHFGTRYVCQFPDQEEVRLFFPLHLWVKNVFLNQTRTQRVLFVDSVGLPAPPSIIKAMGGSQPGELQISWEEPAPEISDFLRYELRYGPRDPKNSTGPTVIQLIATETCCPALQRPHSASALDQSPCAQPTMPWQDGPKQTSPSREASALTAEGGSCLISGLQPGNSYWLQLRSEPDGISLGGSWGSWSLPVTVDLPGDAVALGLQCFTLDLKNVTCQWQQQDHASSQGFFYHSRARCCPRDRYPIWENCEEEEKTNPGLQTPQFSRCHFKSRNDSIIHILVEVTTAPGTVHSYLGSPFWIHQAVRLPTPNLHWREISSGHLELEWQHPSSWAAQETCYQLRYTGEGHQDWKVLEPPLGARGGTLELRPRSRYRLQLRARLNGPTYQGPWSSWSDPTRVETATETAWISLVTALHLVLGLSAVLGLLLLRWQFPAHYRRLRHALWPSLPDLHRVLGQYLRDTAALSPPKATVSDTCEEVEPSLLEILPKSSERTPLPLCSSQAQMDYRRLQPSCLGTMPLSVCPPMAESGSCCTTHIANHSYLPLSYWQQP
Experiment: BaF3/hTPO-R in vitro proliferation assay
Type: cell-based
Conditions: murine BaF3 cell line transfected with human Tpo-R
Procedure: Compounds of the present invention were tested for potency as mimetics of TPO in an in vitro proliferation assay using the murine BaF3 cell line transfected with human Tpo-R. Survival and growth is dependent on the presence of TPO.

Question: Which EC50 does the source give for CC1=NN(C2CCCCC2)C(=O)C1=NNc1cccc(-c2cccc(C(=O)O)c2)c1O [Example 1, 3′-[N′-(1-cyclohexyl-3-methyl-5-oxo-1,5-dihydro-pyrazol-4-ylidene)-hydrazino]-2′-hydroxy-biphenyl-3-carboxylic acid] here?
Answer: 800 nM

Question: What about the “activity, % TPO” value (relative to TPO) of the same compound?
Answer: 160 % TPO
